Measured values reported in US10301267B2, “Compounds” (AstraZeneca AB, priority 2006, dated 2019).

These compounds were tested against FGFR1 active kinase (Homo sapiens, UniProt P11362) (assay: FGFR Kinase assay - Caliper Echo Dosing). Conditions: FGFR1 7.2 nM, 408 uM ATP, acoustic dosing; geometric mean of n.
Type: biochemical
Procedure: FGFR Kinase Assay—Caliper Echo Dosing
To determine inhibition of FGFR activity, kinase assays were conducted using Caliper technology.
Kinase activity assays were performed in Greiner 384-well low volume plates, with a total reaction volume of 12 ul per well. Final concentration of FGFR1 active kinase in each reaction well was 7.2 nM. The substrate for each assay was a custom peptide with fluorescent tag (13 amino acids in length, […] with the fluorescene tag on the first K).
Compounds were dispensed directly in to assay plates using a Labcyte Echo 550 acoustic droplet ejection unit. Each well received 120 nl of DMSO containing compound such that the final concentration of compound in the assay prior to the addition of the stop solution ranged between 30 uM and 30 pM. In addition to compounds each plate carried maximum and minimum control wells, the max wells contained 120 nl of DMSO and the min wells contained 120 nl of 10 mM staurosporine (LC Laboratories, MA 01801, USA Catalogue No. S-9300). The Enzyme (at 7.2 nM [final]) and Substrate (at 3.6 uM [final]) were added separately to the compound plates, in reaction buffer [comprising: 50 mM MOPS (Sigma, Catalogue No. M1254)—pH 6.5, 0.004% Triton (Sigma, Catalogue No. X-100), 2.4 mM DTT, 12 mM MgCl2, 408 uM ATP] resulting in a final DMSO concentration in the reaction mix of 1%.
Assay plates were incubated at room temperature for 1.5 h, before the reaction was stopped with the addition of buffer [comprising: 100 mM HEPES—pH7.5, 0.033% Brij-35 (Sigma Catalogue No. B4184), 0.22% Caliper Coating Reagent #3 (Caliper Life Sciences Catalogue No. 760050), 88 mM EDTA, 5% DMSO]. Stopped assay plates were then read using the Caliper LabChip® LC3000 (which uses microfludics to measure a shift in mobility between fluorescent labelled peptide and the FGFR1 kinase—phosphorylated form of this peptide).
In the assay, compounds were tested at a range of concentrations. […] Percentage inhibition at 1 uM, as expressed herein, is a calculated value based on the curve fit that was generated experimentally. From the fitted curve plot, the effect of compound at a concentration of 1 uM was calculated as a percentage inhibition. The IC50 is the concentration of compound, which inhibits FGFR1 kinase activity by 50% in the context of this assay. This value is calculated using a standard curve fitting software package Origin™.

Sequence of FGFR1 active kinase (P11362 22-822): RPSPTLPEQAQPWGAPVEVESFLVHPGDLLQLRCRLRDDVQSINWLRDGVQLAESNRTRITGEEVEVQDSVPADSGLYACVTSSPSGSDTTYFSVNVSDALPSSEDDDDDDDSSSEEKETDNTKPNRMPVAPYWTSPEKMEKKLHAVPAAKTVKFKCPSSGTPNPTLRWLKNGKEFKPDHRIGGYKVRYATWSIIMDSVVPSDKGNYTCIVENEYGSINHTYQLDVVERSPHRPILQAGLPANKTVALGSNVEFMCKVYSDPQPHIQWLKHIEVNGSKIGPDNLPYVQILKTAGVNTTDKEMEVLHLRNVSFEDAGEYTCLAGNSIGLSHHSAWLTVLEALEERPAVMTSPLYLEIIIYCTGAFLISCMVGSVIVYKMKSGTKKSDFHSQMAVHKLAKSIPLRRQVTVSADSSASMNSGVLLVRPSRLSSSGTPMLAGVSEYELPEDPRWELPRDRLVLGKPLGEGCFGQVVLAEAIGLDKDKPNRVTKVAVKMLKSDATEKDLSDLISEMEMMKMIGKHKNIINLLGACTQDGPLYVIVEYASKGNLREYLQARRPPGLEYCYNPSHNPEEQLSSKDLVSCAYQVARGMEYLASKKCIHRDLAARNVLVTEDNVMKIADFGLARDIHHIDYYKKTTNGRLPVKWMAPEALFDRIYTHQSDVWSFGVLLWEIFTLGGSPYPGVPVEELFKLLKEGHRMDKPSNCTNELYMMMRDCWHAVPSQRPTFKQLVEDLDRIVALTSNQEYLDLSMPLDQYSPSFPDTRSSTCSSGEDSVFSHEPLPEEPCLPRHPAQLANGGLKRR

| IC50 | SMILES |
| --- | --- |
| 2.4 nM | COc1cc(COc2cc(NC(=O)c3cnc(N4CCN5CCCC5C4)nc3)[nH]n2)cc(OC)c1 (stereo not shown) [Example 134, 2-(3,4,6,7,8,8a-hexahydro-1H-pyrrolo[2,1-c]pyrazin-2-yl)-N-[5-[(3,5-dimethoxyphenyl)methoxy]-2H-pyrazol-3-yl]pyrimidine-5-carboxamide] |
| 2.6 nM | COc1cc(CCc2cc(NC(=O)c3cnc(N4CCN(C)C(C)C4)nc3)[nH]n2)cc(OC)c1 (stereo not shown) [Example 135, N-[5-[2-(3,5-dimethoxyphenyl)ethyl]-2H-pyrazol-3-yl]-2-(3,4-dimethylpiperazin-1-yl)pyrimidine-5-carboxamide] |
| 1.9 nM | COc1cc(CCc2cc(NC(=O)c3cnc(N4C[C@@H](C)N(C)[C@@H](C)C4)nc3)[nH]n2)cc(OC)c1 [Example 136, N-[5-[2-(3,5-dimethoxyphenyl)ethyl]-2H-pyrazol-3-yl]-2-[(3R,5S)-3,4,5-trimethylpiperazin-1-yl]pyrimidine-5-carboxamide] |
| 0.57 nM | COc1cc(CCc2cc(NC(=O)c3ccc(N4CCN(C(C)CO)CC4)cc3)[nH]n2)cc(OC)c1 (stereo not shown) [Example 137, N-[5-[2-(3,5-dimethoxyphenyl)ethyl]-2H-pyrazol-3-yl]-4-[4-(1-hydroxypropan-2-yl)piperazin-1-yl]benzamide] |
| 2.6 nM | COc1cc(COc2cc(NC(=O)c3cnc(N4C[C@@H](C)N(C)[C@@H](C)C4)nc3)[nH]n2)cc(OC)c1 [Example 138, N-(3-(3,5-dimethoxybenzyloxy)-1H-pyrazol-5-yl)-2-((3R,5S)-3,4,5-trimethylpiperazin-1-yl)pyrimidine-5-carboxamide] |
| 0.47 nM | COc1cc(CCc2cc(NC(=O)c3ccc(N4CCNC(C)(C)C4)cc3)[nH]n2)cc(OC)c1 [Example 139, N-[5-[2-(3,5-dimethoxyphenyl)ethyl]-2H-pyrazol-3-yl]-4-(3,3-dimethylpiperazin-1-yl)benzamide] |
| 0.98 nM | COc1cc(COc2cc(NC(=O)c3ccc(N4CCNC(C)(C)C4)s3)[nH]n2)cc(OC)c1 [Example 140, N-[5-[(3,5-dimethoxyphenyl)methoxy]-2H-pyrazol-3-yl]-5-(3,3-dimethylpiperazin-1-yl)thiophene-2-carboxamide] |
| 0.86 nM | CCN1CCN(c2ccc(C(=O)Nc3cc(OCc4cc(OC)cc(OC)c4)n[nH]3)s2)CC1 [Example 141, N-[5-[(3,5-dimethoxyphenyl)methoxy]-2H-pyrazol-3-yl]-5-(4-ethylpiperazin-1-yl)thiophene-2-carboxamide] |
| 2.1 nM | COc1cc(CCc2cc(NC(=O)c3ccc(N4CCCN(C)CC4)s3)[nH]n2)cc(OC)c1 [Example 142, N-[5-[2-(3,5-dimethoxyphenyl)ethyl]-2H-pyrazol-3-yl]-5-(4-methyl-1,4-diazepan-1-yl)thiophene-2-carboxamide] |
| 2.7 nM | CCN1CCN(c2ncc(C(=O)Nc3cc(CCc4cc(OC)cc(OC)c4)n[nH]3)cn2)CC1C (stereo not shown) [Example 143, N-[5-[2-(3,5-dimethoxyphenyl)ethyl]-2H-pyrazol-3-yl]-2-(4-ethyl-3-methylpiperazin-1-yl)pyrimidine-5-carboxamide] |
| 0.041 nM | C=CCN1CCC(c2ccc(C(=O)Nc3cc(CCc4cc(OC)cc(OC)c4)n[nH]3)cc2)CC1 [Example 144, N-[5-[2-(3,5-dimethoxyphenyl)ethyl]-2H-pyrazol-3-yl]-4-(1-prop-2-enylpiperidin-4-yl)benzamide] |
| 0.7 nM | COc1cc(CCc2cc(NC(=O)c3ccc(N4CCCNCC4)cc3)[nH]n2)cc(OC)c1 [Example 145, 4-(1,4-diazepan-1-yl)-N-[5-[2-(3,5-dimethoxyphenyl)ethyl]-2H-pyrazol-3-yl]benzamide] |
| 1.1 nM | C#CCN1CCC(c2ccc(C(=O)Nc3cc(CCc4cc(OC)cc(OC)c4)n[nH]3)cc2)CC1 [Example 146, N-[5-[2-(3,5-dimethoxyphenyl)ethyl]-2H-pyrazol-3-yl]-4-(1-prop-2-ynylpiperidin-4-yl)benzamide] |
| 1.8 nM | COc1cc(COc2cc(NC(=O)c3ccc(N4C[C@@H](C)N[C@@H](C)C4)s3)[nH]n2)cc(OC)c1 [Example 147, N-[5-[(3,5-dimethoxyphenyl)methoxy]-2H-pyrazol-3-yl]-5-[(3S,5R)-3,5-dimethylpiperazin-1-yl]thiophene-2-carboxamide] |
| 0.87 nM | COCCN1CCC(c2ccc(C(=O)Nc3cc(CCc4cc(OC)cc(OC)c4)n[nH]3)cc2)CC1 [Example 148, N-[5-[2-(3,5-dimethoxyphenyl)ethyl]-2H-pyrazol-3-yl]-4-[1-(2-methoxyethyl)piperidin-4-yl]benzamide] |
| 4.4 nM | COc1cc(CCc2cc(NC(=O)c3cnc(N4CCN[C@@H](C(C)C)C4)nc3)[nH]n2)cc(OC)c1 [Example 149, N-[5-[2-(3,5-dimethoxyphenyl)ethyl]-2H-pyrazol-3-yl]-2-[(3S)-3-propan-2-ylpiperazin-1-yl]pyrimidine-5-carboxamide] |
| 12 nM | COc1cc(CCc2cc(NC(=O)c3cnc(N4CCN(C)C(=O)C4)nc3)[nH]n2)cc(OC)c1 [Example 150, N-[5-[2-(3,5-dimethoxyphenyl)ethyl]-2H-pyrazol-3-yl]-2-(4-methyl-3-oxopiperazin-1-yl)pyrimidine-5-carboxamide] |
| 1.3 nM | COc1cc(COc2cc(NC(=O)c3ccc(N4CC5CCCNC5C4)cc3)[nH]n2)cc(OC)c1 (stereo not shown) [Example 151, 4-(1,2,3,4,4a,5,7,7a-octahydropyrrolo[3,4-b]pyridin-6-yl)-N-[5-[(3,5-dimethoxyphenyl)methoxy]-2H-pyrazol-3-yl]benzamide] |
| 1.3 nM | COc1cc(CCc2cc(NC(=O)c3cnc(C4CCN(C)CC4)cn3)[nH]n2)cc(OC)c1 [Example 152, N-[5-[2-(3,5-dimethoxyphenyl)ethyl]-2H-pyrazol-3-yl]-5-(1-methylpiperidin-4-yl)pyrazine-2-carboxamide] |
| 0.45 nM | COc1cc(CCc2cc(NC(=O)c3ccc(N4C[C@@H](C)N(C)[C@@H](C)C4)cc3)[nH]n2)cc(OC)c1 [Example 155, N-[5-[2-(3,5-dimethoxyphenyl)ethyl]-2H-pyrazol-3-yl]-4-[(3R,5S)-3,4,5-trimethylpiperazin-1-yl]benzamide] |
| 0.81 nM | COc1cc(CCc2cc(NC(=O)c3ccc(N4CCCN(C)CC4)cc3)[nH]n2)cc(OC)c1 [Example 156, N-[5-[2-(3,5-dimethoxyphenyl)ethyl]-2H-pyrazol-3-yl]-4-(4-methyl-1,4-diazepan-1-yl)benzamide] |
| 2.4 nM | COc1cc(CCc2cc(NC(=O)c3cnc(N4CCC(N(C)C)C4)cn3)[nH]n2)cc(OC)c1 (stereo not shown) [Example 157, N-[5-[2-(3,5-dimethoxyphenyl)ethyl]-2H-pyrazol-3-yl]-5-(3-dimethylaminopyrrolidin-1-yl)pyrazine-2-carboxamide] |
| 2.9 nM | CCN(CC)C1CCN(c2cnc(C(=O)Nc3cc(CCc4cc(OC)cc(OC)c4)n[nH]3)cn2)C1 (stereo not shown) [Example 158, 5-(3-diethylaminopyrrolidin-1-yl)-N-[5-[2-(3,5-dimethoxyphenyl)ethyl]-2H-pyrazol-3-yl]pyrazine-2-carboxamide] |
| 0.97 nM | CCN1CCC(c2ccc(C(=O)Nc3cc(CCc4cc(OC)cc(OC)c4)n[nH]3)cc2)CC1 [Example 159, N-[5-[2-(3,5-dimethoxyphenyl)ethyl]-2H-pyrazol-3-yl]-4-(1-ethylpiperidin-4-yl)benzamide] |
| 4.3 nM | COCC1CN(c2ncc(C(=O)Nc3cc(CCc4cc(OC)cc(OC)c4)n[nH]3)cn2)CCN1 (stereo not shown) [Example 160, N-[5-[2-(3,5-dimethoxyphenyl)ethyl]-2H-pyrazol-3-yl]-2-[3-(methoxymethyl)piperazin-1-yl]pyrimidine-5-carboxamide] |
| 3 nM | CNC1CCN(c2cnc(C(=O)Nc3cc(CCc4cc(OC)cc(OC)c4)n[nH]3)cn2)C1 (stereo not shown) [Example 161, N-[5-[2-(3,5-dimethoxyphenyl)ethyl]-2H-pyrazol-3-yl]-5-(3-methylaminopyrrolidin-1-yl)pyrazine-2-carboxamide] |
| 36 nM | COc1cc(CCc2cc(NC(=O)c3cnc(C4CCN(C)CC4)nc3)[nH]n2)cc(OC)c1 [Example 162, N-[5-[2-(3,5-dimethoxyphenyl)ethyl]-2H-pyrazol-3-yl]-2-(1-methylpiperidin-4-yl)pyrimidine-5-carboxamide] |

| SMILES | IC50 |
| --- | --- |
| COc1cc(CCc2cc(NC(=O)c3cnc(C4=CCN(C)CC4)cn3)[nH]n2)cc(OC)c1 [Example 153, N-[5-[2-(3,5-dimethoxyphenyl)ethyl]-2H-pyrazol-3-yl]-5-(1-methyl-3,6-dihydro-2H-pyridin-4-yl)pyrazine-2-carboxamide] | 0.82 nM |
